Reference: patent US8785452B2, “Anti-infective compounds” (priority 2008, dated 2014)

Test system: M. tuberculosis clinical isolates
Assay type: cell-based, Mycobacterium tuberculosis
Conditions: multi-drug-resistant and extensive-drug-resistant isolates

Cc1cccn2c(=O)c(C=O)c(Nc3cccc(Cl)c3)nc12 [compound 133, 2-(3-Chlorophenylamino)-9-methyl-4-oxo-4H-pyrido[1,2-a]pyrimidine-3-carbaldehyde]
activity (MIC values) against MDR and XDR clinical isolates, in words: within the micromolar range
